These results are taken from article PMC7732025 (Archives of pharmacal research, 2013).

Bounds are passed on as bounds.

The nature of data set [1]: Cytotoxic assay, primary human PBM cells. The data set is classed as cell-based. The following applies: human, primary human PBM cells.
Data set [2] has as its system primary human PBM cells. Nature of the data set: Cytotoxic assay, primary human PBM cells. Format: cell-based. The following applies: primary human PBM cells (lymphocytes).
Data set [3] can be described thus: Cytotoxic assay, VERO cells. Format: cell-based. Particulars: African green monkey.
The test system of data set [4] is VERO cells. Nature of the data set: Cytotoxic assay, VERO cells. Format: cell-based.
Data set [5] can be described thus: in vitro. Particulars: human, CEM cells.
In data set [6] the test system is CEM cells.

The IC50 is the concentration at which inhibition is half-maximal. Regarding `CC(=NNC(=O)CN1c2c(-c3ccccc3)n[nH]c2-c2ccccc2S1(=O)=O)c1cc(Cl)sc1Cl` [5i, N′-(1-(2,5-dichlorothiophen-3-yl)ethylidene)-2-(5,5-dioxido-3-phenylbenzo[e]pyrazolo[4,3-c][1,2]thiazin-4(1H)-yl)acetohydrazide], the IC50 at 5 day in data set [1] was found to be 12.2 µM; in data set [3], 38.8 µM; in data set [5], 14.4 µM. Also, in data set [2], the “toxicity in primary human PBM cells (in words)” value was “toxic”. In data set [4], the “toxicity in VERO cells (in words)” value is reported as “toxic”. The “toxicity in CEM cells (in words)” value in data set [6] is “toxic”.
Take `CC(=NNC(=O)CN1c2c(-c3ccccc3)n[nH]c2-c2ccccc2S1(=O)=O)c1sc(N)nc1C` [5h, N′-(1-(2-amino-4-methylthiazol-5-yl)ethylidene)-2-(5,5-dioxido-3-phenylbenzo[e]pyrazolo[4,3-c][1,2]thiazin-4(1H)-yl)acetohydrazide]: the half-maximal inhibitory concentration (IC50) at 5 day in data set [1], in data set [3] and in data set [5] was greater than 100 µM each time. Besides, in data set [2], the “toxicity in primary human PBM cells (in words)” value is given as “no toxicity”. In addition, the “toxicity in VERO cells (in words)” value in data set [4] is recorded as “no toxicity”. For the same compound, the “toxicity in CEM cells (in words)” value in data set [6] is recorded as “no toxicity”.
